Measured values as given in patent US20240000950A1, “THERAPEUTIC CURE-PRO COMPOUNDS FOR TARGETED DEGRADATION OF BET DOMAIN PROTEINS, AND METHODS OF MAKING AND USING THEM” (CORNELL UNIVERSITY, priority 2020, published 2024).
Entries after “also recorded” stand apart in the source; their conditions may differ.

Key:
Type in all cases: cell-based
[1] = system: caspase 3/7 activity in Namalwa cells; experiment: Caspase-Glo 3/7 assay, Namalwa cells; details: 24 h, co-treated with VHL ligand VHL298
Method: All cell lines were purchased from ATCC or DSMZ and grown at 37° C. with 5% C02. […]
(§1) Caspase-glo® assay (Promega) was conducted following the manufacturer's recommendations. […] After a 24 h incubation, 100 μl of the […] substrate was added per well and luminescence was read on a Spectramax M5 (Molecular Devices).
Namalwa cells (5×104) were treated for 24 hours with the compounds solubilized in DMSO. FIG. 57 is a bar graph depiction of fold increase of apoptosis assessed via caspase 3/7 activity using the Caspase-Glo assay (Promega) described above.
(§2) Molm-13 (FIG. 76A) or Namalwa (FIG. 76B) cells (5×104) were treated for 24 hours with the compounds solubilized in DMSO in white 96 well plates (10 nM-10 μM solubilized in DMSO). FIG. 76 is a bar graph depiction of fold increase of apoptosis assessed via caspase 3/7 activity using the Caspase-Glo assay (Promega) described above.

[2] = system: caspase 3/7 activity in MOLM13 cells; experiment: Caspase-Glo 3/7 assay, Molm-13 cells; details: 24 h, co-treated with VHL ligand VHL298
Method: (§3) All cell lines were purchased from ATCC or DSMZ and grown at 37° C. with 5% C02. Human HeLa cells were cultured in complete growth medium (Dulbecco's modified Eagle's medium (DMEM) supplemented with 10% FBS); MCF7 cells were cultured in complete growth medium (Dulbecco's modified Eagle's medium (DMEM) supplemented with 10% FBS and 0.01 mg/ml human recombinant insulin (Sigma Aldrich); Namalwa and MOLM-13 cells were cultured in complete growth medium (RPMI 1640 medium supplemented with 10% FBS); MV-4-11 were cultured in complete growth medium (Iscove's Modified Dulbecco's medium, supplemented with 10% FBS); HCT116 cells were cultured in complete growth medium (McCoy's 5a Medium supplemented with 10% FBS). […]
as §1, §2

Molm-13 cells = experiment: CellTiter-Glo cell viability, Molm-13 cells
Method: as §3
CellTiter-Glo® 2.0 Cell Viability Assay (Promega) was carried out following the manufacturer's recommendations. […] After a 72 h incubation, 100 ul of the CellTiter-Glo® substrate was added per well and luminescence was read on a Spectramax M5 (Molecular Devices). […]
Molm-13 cells (1×104) were treated for 24 (FIG. 77A) or 72 (FIG. 77B) hours were treated in white 96 well plates with the compounds (10 nM-10 μM solubilized in DMSO). After indicated times cell viability was assessed using the CellTiter-Glo® Luminescent Cell Viability Assay (Promega) and the signal detected on a SpectraMax M5 (Molecular Devices).

BRD4 [3] = molecular target: T1, BRD4 (Homo sapiens, UniProt O60885); experiment: CURE-PRO-mediated BRD4 degradation in MCF7 cells with VHL ligands, WES (ProteinSimple); parameters: endogenous in cells; host or cells: HeLa, MCF7 or HCT116
Method: as §3, with “FBS). For cellular degradation of BRD4 studies, cells were seeded in a 12-well plate at 70-80% confluency, allowed to attach overnight, and incubated with the indicated compounds for the indicated time.” for “FBS).”
WES Simple analysis was performed on WES system (ProteinSimple-Biotechne) according to the manufacturer's instructions. Total protein concentrations of cell lysates were determined by the Pierce BCA kit (Thermo Fisher). […]
MCF7 cells (3×10^6) were treated for 4-24 hours continually (FIG. 72), or treated for 4 h, washed and incubated for a further 4-24 h with the compounds solubilized in DMSO. […] The total protein concentration was quantified by the BCA method (ThermoFisher Sciences). […]

BRD4 [4] = molecular target: T1, BRD4; experiment: Summary of E3 ligase directed degradation of BRD4, estimated from Western Blot or WES (Tables 1-6); parameters: endogenous in cells; host or cells: HeLa, MCF7 or HCT116; details: Table 3; aromatic 1,2-diol-containing VHL ligand drawn as drawing 442 (by the text apparently 8305)
Procedure, shortened: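 HeLa, MCF7 or HCT116 cells treated 24 h with compounds in DMSO, lysed in RIPA buffer; BRD4 levels read by Western blot (ECL detection) or capillary WES with HRP detection. Check mark denotes 30% to 70% or higher protein degradation.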

Structure (SMILES): CCNC(=O)C[C@@H]1N=C(c2ccc(Cl)cc2)c2cc(B(O)O)ccc2-n2c(C)nnc21 [BRD-E50, ((4S)-6-(4-chlorophenyl)-4-(2-(ethylamino)-2-oxoethyl)-1-methyl-4H-benzo[f][1,2,4]triazolo[4,3-a] [1,4]diazepin-8-yl)boronic acid]
- caspase 3/7 activity [1]: does not increase caspase activity
- caspase 3/7 activity [2]: does not increase caspase activity
- loss of cell viability (CellTiter-Glo) (Molm-13 cells; 24 h and 72 h, 10 nM-10 μM, co-dosed 1:1 with VHL ligand 8305): marked loss in cell viability; also recorded: a greater loss of cell viability
- cell viability (CellTiter-Glo) (Molm-13 cells; co-treated with VHL ligand VHL298): decreases levels of cell viability to similar levels of BRD-E50 treatment alone
- BRD4 degradation after pre-incubation with VHL298 (BRD4 [3]; 10 μM each with VHL ligand 8305, VHL298 preincubated at equimolar concentration): attenuates CURE-PRO mediated BRD4 degradation; also recorded: No degradation is noted; also recorded: inhibited CURE-PRO mediated degradation; also recorded: inhibits the degradation of BRD4
- BRD4 degradation (BRD4 [3]; 10 μM each, 1:1 with VHL ligand 8305, 4-24 h, with washout where stated): directs degradation of BRD4 as early as 4 h, with sustained degradation 24 h after wash out; also recorded: marked BRD4 degradation after 4 h with sustained degradation for up to 8 h after drugs are washed out
- Degradation of BRD4, combination with VHL ligand [drawing 442] (BRD4 [4]): ✓ (A black check mark indicates efficacy of 30% to 70% or higher protein degradation)
